Source: ChEMBL document CHEMBL5344447, “A Homodimer of Withaferin A Formed by Base-Promoted Elimination of Acetic Acid from 27-O-Acetylwithaferin A Followed by a Diels-Alder Reaction” (J Nat Prod, 2024)

Experiments:
[1] = Cytotoxicity against human HFF cells assessed as reduction in cell proliferation by MTT assay; assay type: toxicity, cell-based
DU-145 = assay: Cytotoxicity against human hormone nonresponsive DU-145 cells assessed as reduction in cell proliferation by MTT assay; assay type: functional, cell-based
PC-3 = assay: Cytotoxicity against human hormone nonresponsive PC-3 cells assessed as reduction in cell proliferation by MTT assay; assay type: functional, cell-based
LNCaP = assay: Cytotoxicity against human LNCaP cells assessed as reduction in cell proliferation by MTT assay; assay type: functional, cell-based
[2] = Cytotoxicity against human hormone nonresponsive and Castration-resistant 22Rv1 cells assessed as reduction in cell proliferation by MTT assay; assay type: functional, cell-based, Castration-resistant 22Rv1 cell

| SMILES | IC50 [1] | IC50 (DU-145) | IC50 (PC-3) | IC50 (LNCaP) | IC50 [2] |
| --- | --- | --- | --- | --- | --- |
| C=C1C(=O)O[C@@H]([C@@H](C)[C@H]2CC[C@H]3[C@@H]4C[C@H]5O[C@]56[C@@H](O)C=CC(=O)[C@]6(C)[C@H]4CC[C@]23C)C=C1C | > 5000 nM | > 5000 nM | 2200 nM | > 5000 nM | > 5000 nM |
| CC(=O)OCC1=C(C)C[C@H]([C@@H](C)[C@H]2CC[C@H]3[C@@H]4C[C@H]5O[C@]56[C@@H](O)C=CC(=O)[C@]6(C)[C@H]4CC[C@]23C)OC1=O | 1900 nM | 800 nM | 300 nM | 1900 nM | 1400 nM |
| C=C1C(=O)O[C@@H]([C@@H](C)[C@H]2CC[C@H]3[C@@H]4C[C@H]5O[C@]56[C@@H](OC(C)=O)C=CC(=O)[C@]6(C)[C@H]4CC[C@]23C)C=C1C | 2000 nM | 2500 nM | 400 nM | 1600 nM | 1500 nM |
| COc1cccc2c1C(=O)c1c(O)c3c(c(O)c1C2=O)C[C@@](O)(C(=O)CO)C[C@@H]3O[C@H]1C[C@H](N)[C@H](O)[C@H](C)O1 [DOXORUBICIN] | 1400 nM | 100 nM | 600 nM | 100 nM | 40 nM |
| C=C1C[C@@H]([C@@H](C)[C@H]2CC[C@H]3[C@@H]4C[C@H]5O[C@]56[C@@H](OC(=O)c5ccc([N+](=O)[O-])cc5)C=CC(=O)[C@]6(C)[C@H]4CC[C@]23C)OC(=O)[C@@]12CCC1=C(C[C@@H]([C@@H](C)[C@H]3CC[C@H]4[C@@H]5C[C@H]6O[C@]67[C@@H](OC(=O)c6ccc([N+](=O)[O-])cc6)C=CC(=O)[C@]7(C)[C@H]5CC[C@]34C)OC1=O)C2 | 500 nM | 1100 nM | 200 nM | 2300 nM | 1100 nM |
| C=C1C[C@@H]([C@@H](C)[C@H]2CC[C@H]3[C@@H]4C[C@H]5O[C@]56[C@@H](OC(C)=O)C=CC(=O)[C@]6(C)[C@H]4CC[C@]23C)OC(=O)[C@@]12CCC1=C(C[C@@H]([C@@H](C)[C@H]3CC[C@H]4[C@@H]5C[C@H]6O[C@]67[C@@H](OC(C)=O)C=CC(=O)[C@]7(C)[C@H]5CC[C@]34C)OC1=O)C2 | 2500 nM | 3700 nM | 1000 nM | > 5000 nM | 2600 nM |
| C=C1C[C@@H]([C@@H](C)[C@H]2CC[C@H]3[C@@H]4C[C@H]5O[C@]56[C@@H](O)C=CC(=O)[C@]6(C)[C@H]4CC[C@]23C)OC(=O)[C@@]12CCC1=C(C[C@@H]([C@@H](C)[C@H]3CC[C@H]4[C@@H]5C[C@H]6O[C@]67[C@@H](O)C=CC(=O)[C@]7(C)[C@H]5CC[C@]34C)OC1=O)C2 | 600 nM | 1000 nM | 200 nM | 900 nM | 1100 nM |
